Several values for one entry are separate records, joined by “and”; a condition that tells them apart may be missing. Equal entries are not always repeated.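 Each compound was tested at five concentrations against cells in 96-well plates for 48 hours. GI50 marks 50% less growth. TGI marks complete inhibition of growth.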
Tests used:
Assay in all cases: DTP human tumour cell line panel, 48 h
786-0 renal = tested on: 786-0 renal
IGROV1 ovarian = tested on: IGROV1 ovarian
CCRF-CEM leukemia = tested on: CCRF-CEM leukemia
HCC-2998 colon = tested on: HCC-2998 colon
UACC-257 melanoma = tested on: UACC-257 melanoma
OVCAR-8 ovarian = tested on: OVCAR-8 ovarian
SNB-19 CNS = tested on: SNB-19 CNS
NCI/ADR-RES ovarian = tested on: NCI/ADR-RES ovarian
MDA-MB-231 breast = tested on: MDA-MB-231 breast
MCF7 breast = tested on: MCF7 breast

| SMILES | TGI (786-0 renal) | TGI (IGROV1 ovarian) | TGI (CCRF-CEM leukemia) | TGI (HCC-2998 colon) | TGI (UACC-257 melanoma) | TGI (OVCAR-8 ovarian) | TGI (SNB-19 CNS) | GI50 (786-0 renal) | GI50 (IGROV1 ovarian) | GI50 (CCRF-CEM leukemia) | GI50 (HCC-2998 colon) | GI50 (UACC-257 melanoma) | GI50 (OVCAR-8 ovarian) | GI50 (SNB-19 CNS) | TGI (NCI/ADR-RES ovarian) | TGI (MDA-MB-231 breast) | GI50 (MCF7 breast) | TGI (MCF7 breast) | GI50 (NCI/ADR-RES ovarian) | GI50 (MDA-MB-231 breast) |
| --- | --- | --- | --- | --- | --- | --- | --- | --- | --- | --- | --- | --- | --- | --- | --- | --- | --- | --- | --- | --- |
| Brc1cc2c(cc1Br)CN(c1ccccc1)C2 | > 100 µM | > 100 µM | > 100 µM | > 100 µM | > 100 µM | > 100 µM | > 100 µM |  |  |  |  |  |  |  |  |  |  |  |  |  |
| CCc1cccc(C)c1NC(=O)CC1C(=O)Nc2ccccc2S1(=O)=O (centres undefined) | 31.5 µM | 35.2 µM | 41.6 µM | 30.4 µM | 82.7 µM | 54.1 µM | 75.5 µM |  |  |  |  |  |  |  |  |  |  |  |  |  |
| NNC(=O)C(=O)N/N=C(\CCC(=O)Nc1ccc(Cl)cc1)Cc1nc2ccccc2s1 | > 100 µM | 51.3 µM | 77.1 µM | > 100 µM | > 100 µM | > 100 µM | > 100 µM |  |  |  |  |  |  |  |  |  |  |  |  |  |
| N.N.O=P([O-])([O-])C1(P(=O)([O-])[O-])CCCCCN1.[Pt+2] | > 100 µM | > 100 µM | > 100 µM | > 100 µM | > 100 µM | > 100 µM | > 100 µM | > 100 µM | > 100 µM | > 100 µM | > 100 µM | > 100 µM | > 100 µM | > 100 µM |  |  |  |  |  |  |
| CC(=O)[CH-]C(C)=O.CC(=O)[CH-]C(C)=O.CC[O-].CC[O-].[Ti+4] | > 100 µM | > 100 µM | > 100 µM | > 100 µM | > 100 µM | > 100 µM | > 100 µM | > 100 µM | > 100 µM | > 100 µM | > 100 µM | > 100 µM | > 100 µM | > 100 µM |  |  |  |  |  |  |
| O=C(CCC(=O)C1CCC/C1=N/O)Nc1ccc(Cl)cc1 (centres undefined) | > 100 µM | > 100 µM | > 100 µM | > 100 µM | > 100 µM | > 100 µM | > 100 µM |  |  |  |  |  |  |  |  |  |  |  |  |  |
| O=C(O)/C(=C\c1ccncc1)c1cccc2ccccc12 | > 100 µM | > 100 µM | > 100 µM |  | 30.7 µM | > 100 µM | > 100 µM |  |  |  |  |  |  |  | > 100 µM | > 100 µM |  |  |  |  |
| Cc1ccc(C(=O)CC2=Nc3nnc(CCCCCCCc4nnc5n4C(=O)C(CC(=O)c4ccc(C)cc4)=N5)n3C2=O)cc1 | > 100 µM | > 100 µM | > 100 µM | > 100 µM | > 100 µM | > 100 µM | > 100 µM |  |  |  |  |  |  |  |  |  |  |  |  |  |
| Cc1ccc([C@]2(C)CC[C@H](C)/C2=C\Br)c(O)c1 | 13.4 µM | 12.4 µM | 35.6 µM |  | 22 µM | 21.9 µM | 18.9 µM | 3.59 µM | 3.07 µM | 6.77 µM |  | 9.22 µM | 5.88 µM | 4.6 µM | 5.52 µM | 14.4 µM | 4.52 µM | 17.9 µM | 2.26 µM | 3.5 µM |
| O=C1/C(=C/c2ccc(Br)cc2)CCC/C1=C\c1ccc(Br)cc1 | 33.8 µM | 38.7 µM | 24.4 µM | 6.48 µM | 16.2 µM | 22 µM | 46 µM |  |  |  |  |  |  |  |  |  |  |  |  |  |
| COc1cc2c3c(n(C)c(=O)c2cc1OC)-c1cc2c(cc1/C3=C\CCNCCCN)OCO2 | 12.5 µM | > 100 µM | 13.4 µM |  | 39.7 µM | 44.6 µM | 14.7 µM | 1.99 µM | 1.82 µM | 0.686 µM |  |  | 2.98 µM | 1.42 µM | > 100 µM | 3.05 µM | 2.77 µM | 13.4 µM | > 100 µM | 0.58 µM |
| O=[N+]([O-])c1ccc(C=NC23CC4CC(CC(C4)C2)C3)cc1 | > 100 µM | > 100 µM | > 100 µM | > 100 µM | > 100 µM | > 100 µM | > 100 µM |  |  |  |  |  |  |  |  |  |  |  |  |  |
| OCCN1CCN(CC/C=C2/c3ccccc3Sc3ccc(Cl)cc32)CC1 | 26.7 µM | 28.6 µM | 23.6 µM | 23.5 µM | 7.16 µM | 29.1 µM | 34.9 µM | 13.2 µM |  |  |  |  | 15.2 µM |  |  |  |  |  |  |  |
| CC(=O)N/C(=C\c1ccc(Cc2nc3c([nH]2)C(=O)c2ccccc2C3=O)cc1)c1nc2c([nH]1)C(=O)c1ccccc1C2=O | > 100 µM | > 100 µM | > 100 µM | > 100 µM | > 100 µM | > 100 µM | > 100 µM |  |  |  |  |  |  |  |  |  |  |  |  |  |
| COc1ccc2ccc3oc([N+](=O)[O-])cc3c2c1 | 1.1 µM | 0.877 µM | 10.6 µM | 0.416 µM |  | 3.27 µM | > 100 µM | 0.316 µM | 0.246 µM | 0.193 µM | 0.171 µM |  | 0.216 µM | 0.281 µM | 2.22 µM | 0.723 µM | 0.226 µM | 2.34 µM | 0.251 µM | 0.208 µM |
| CNCCN=c1ccc2c3c1c(O)c1c(O)ccc(=O)c1c3[nH]n2CCNCCO | 1.79 µM and 0.677 µM | 11.2 µM and 12.9 µM |  | 1.61 µM and 8.62 µM | 7 µM | 6.05 µM and 5.42 µM |  | 0.05 µM | 1.25 µM |  |  |  | 0.174 µM and 0.366 µM | 0.0308 µM and 0.11 µM | 46.9 µM and 404 µM and 239 µM | 5.45 µM and 9.63 µM | 0.0568 µM and 0.05 µM | 7.51 µM and 5.2 µM |  | 0.97 µM and 0.504 µM |
| O=C(O)C(Oc1nc(=S)[nH]c(=S)[nH]1)(c1ccc(Cl)cc1)c1ccc(Cl)cc1 | > 100 µM | > 100 µM |  | > 100 µM | > 100 µM | > 100 µM | > 100 µM |  |  |  |  |  |  |  | > 100 µM | > 100 µM |  | > 100 µM |  |  |
| N#CCC(=O)N1CCCCCCC1 | > 100 µM | > 100 µM | > 100 µM | > 100 µM | > 100 µM |  | > 100 µM |  |  |  |  |  |  |  |  |  |  |  |  |  |
| CCN(CC)CCNC(=O)c1cccc2nc3ccccc3nc12 | > 100 µM | > 100 µM |  | 52 µM | 27.7 µM | > 100 µM | > 100 µM |  |  |  |  |  |  |  |  |  |  |  |  |  |
| Oc1ccc(Cc2cc(Cl)cc(Cl)c2O)cc1Cl | 43 µM | 34.1 µM |  |  | 30.4 µM | 36.3 µM | 33.7 µM |  |  |  |  |  |  |  | 38.6 µM | 34.3 µM |  | 32.5 µM |  |  |
| C[C@]12CCC(=O)C=C1CC[C@@H]1C2CC[C@]2(C)c3nn(-c4ccccc4)nc3CC12 (some centres undefined) | > 100 µM | > 100 µM | > 100 µM | > 100 µM | > 100 µM | > 100 µM | > 100 µM |  |  |  |  |  |  |  |  |  |  |  |  |  |

Source: PubChem BioAssay (NCI)
